This note sets out measurements from US20080070960A1, “Novel 3-Aryl-1,2-Benzisoxazole Derivatives and Use Thereof as Medicinal Products Against Cancer” (AVENTIS PHARMA S.A., priority 2005, published 2008).

The first experiment deals with Hsp82 (Saccharomyces cerevisiae, UniProt P02829). The experiment in a line: Hsp82 ATPase activity inhibition (malachite green inorganic phosphate method, or PK/LDH coupled method).
Chain of Hsp82 (P02829 whole entry): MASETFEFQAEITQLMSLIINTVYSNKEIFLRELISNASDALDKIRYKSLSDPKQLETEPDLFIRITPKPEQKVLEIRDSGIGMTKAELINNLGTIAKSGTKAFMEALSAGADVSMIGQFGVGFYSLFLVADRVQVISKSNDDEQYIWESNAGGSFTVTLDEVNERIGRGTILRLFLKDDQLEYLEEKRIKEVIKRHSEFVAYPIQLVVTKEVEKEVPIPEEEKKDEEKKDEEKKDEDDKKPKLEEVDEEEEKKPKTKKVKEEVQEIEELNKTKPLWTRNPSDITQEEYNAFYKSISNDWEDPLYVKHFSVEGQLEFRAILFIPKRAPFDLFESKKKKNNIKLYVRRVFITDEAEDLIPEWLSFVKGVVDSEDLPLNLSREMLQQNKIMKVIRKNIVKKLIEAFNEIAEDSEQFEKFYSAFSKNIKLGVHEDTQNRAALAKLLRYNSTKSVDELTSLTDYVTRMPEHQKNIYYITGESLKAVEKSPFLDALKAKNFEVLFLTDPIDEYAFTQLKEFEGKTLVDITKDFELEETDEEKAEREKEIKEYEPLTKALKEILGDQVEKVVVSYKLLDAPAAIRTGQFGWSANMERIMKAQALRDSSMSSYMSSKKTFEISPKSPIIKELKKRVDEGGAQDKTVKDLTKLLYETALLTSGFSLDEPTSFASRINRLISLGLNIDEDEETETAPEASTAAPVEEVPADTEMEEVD
Settings: not given
It is filed as biochemical. The procedure:
The inorganic phosphate released during the hydrolysis of ATP by the ATPase activity of Hsp82 is quantified by the malachite green method. In the presence of this reagent, formation of the inorganic phosphate-molybdate-malachite green complex occurs, which complex absorbs at a wavelength of 620 nm.
The products to be evaluated are incubated in a reaction volume of 30 μl, in the presence of 1 μM Hsp82 and of 250 μM of substrate (ATP) in a buffer composed of 50 mM Hepes-NaOH (pH 7.5), 1 mM DTT, 5 mM MgCl2 and 50 mM KCl at 37° C. for 60 min. In parallel, a range of inorganic phosphate of between 1 and 40 μM is prepared in the same buffer. The ATPase activity is subsequently visualized by the addition of 60 μl of the biomol green reagent (Tebu). After incubation at ambient temperature for 20 min, the absorbance of the various wells is measured using a microplate reader at 620 nm. The concentration of inorganic phosphate of each sample is then calculated from the standard curve. The ATPase activity of Hsp82 is expressed as concentration of inorganic phosphate produced in 60 min. The effect of the various products tested is expressed as percentage inhibition of the ATPase activity.
The formation of ADP due to the ATPase activity of Hsp82 was used to develop another method for evaluating the enzymatic activity of this enzyme by application of an enzymatic coupling system involving pyruvate kinase (PK) and lactate dehydrogensase (LDH). In this kinetic-type spectrophotometric method, the PK catalyses the formation of ATP and of pyruvate from phosphoenol pyruvate (PEP) and from the ADP produced by Hsp82. The pyruvate formed, which is a substrate for LDH, is subsequently converted into lactate in the presence of NADH. In this case, the decrease in NADH concentration, measured by the decrease in absorbance at the wavelength of 340 nm, is proportional to the concentration of ADP produced by Hsp82.
The products tested are incubated in a reaction volume of 100 μl of buffer composed of 100 mM Hepes-NaOH (pH 7.5), 5 mM MgCl2, 1 mM DTT, 150 mM KCl, 0.3 mM NADH, 2.5 mM PEP and 250 μM ATP. This mixture is preincubated at 37° C. for 30 min before the addition of 3.77 units of LDH and 3.77 units of PK. The reaction is initiated by the addition of the product to be evaluated, at varying concentrations, and of Hsp82, at a concentration of 1 μM. The enzymatic activity of Hsp82 is then measured, continuously, in a microplate reader, at 37° C., at the wavelength of 340 nm. The initial rate of the reaction is obtained by measuring the slope of the tangent at the origin of the curve recorded. The enzymatic activity is expressed in μM of ADP formed per minute. The effect of the various products tested is expressed as percentage inhibition of the ATPase activity.
One may read the IC50 as the concentration that gives 50% inhibition. `Oc1ccc(-c2noc3ccccc23)c(O)c1` [Example 1, 4-(1,2-Benzisoxazol-3-yl)benzene-1,3-diol] showed an IC50 of 1 to 10 µM.

The experiment is the same for the next values; noted with them: inhibition of ATPase activity of Hsp82; 1 μM Hsp82, 250 μM ATP, 37° C.; read-out: IC50.
In the case of `CCc1cc(-c2noc3ccccc23)c(O)cc1O` [Example 6, 4-(1,2-Benzisoxazol-3-yl)-6-ethylbenzene-1,3-diol], the IC50 was 1 to 10 µM.
Same read-out and setting: for `Cc1ccc(NCc2cc(-c3noc4ccccc34)c(O)cc2O)cc1C` [Example 9, 4-(1,2-Benzisoxazol-3-yl)-6-(3,4-dimethylphenylamino)methylbenzene-1,3-diol] the value was less than 1 µM; for `Oc1cc(O)c(-c2noc3ccccc23)cc1CNc1ccc(Cl)c(Cl)c1` [Example 11, 4-(1,2-Benzisoxazol-3-yl)-6-(3,4-dichlorophenylamino)methylbenzene-1,3-diol], 1 to 10 µM.
In the case of `COc1cc(O)c(-c2noc3ccccc23)cc1CNc1ccc(C)c(C)c1` [Example 10, 2-(1,2-benzisoxazol-3-yl)-4-(3,4-dimethylphenylamino)methyl-5-methoxyphenol], the IC50 lay within 10 to 100 µM.
`Oc1cc(O)c(-c2noc3ccccc23)cc1CCc1ccccc1` [Example 7, 4-(1,2-Benzisoxazol-3-yl)-6-(2-phenylethyl)benzene-1,3-diol]: the IC50 fell in the range of 1 to 10 µM.
For `O=C(NCc1ccccc1)c1cc(-c2noc3ccccc23)c(O)cc1O` [Example 4, N1-Phenylmethyl-5-(1,2-benzisoxazol-3-yl)-2,4-dihydroxybenzenecarboxamide], the IC50 lay within 10 to 100 µM.
`COC(=O)c1cc(-c2noc3ccccc23)c(O)cc1O` [Example 3, 5-(1,2-Benzisoxazol-3-yl)-2,4-dihydroxybenzenecarboxylic acid methyl ester]: the half-inhibitory concentration (IC50) lay within 10 to 100 µM.
As to `Oc1cc(O)c(-c2noc3ccccc23)cc1Br` [Example 2, 4-(1,2-Benzisoxazol-3-yl)-6-bromobenzene-1,3-diol], the IC50 is 1 to 10 µM.
Consider `Oc1cc(O)c(-c2noc3ccccc23)cc1/C=N/c1ccc(Cl)c(Cl)c1` [Example 12, 4-(1,2-benzisoxazol-3-yl)-6-(3,4-dichlorophenyl)iminomethylbenzene-1,3-diol], for which the IC50 fell in the range of 1 to 10 µM.
On the same count and under the same terms, under `O=C(Cc1ccccc1)c1cc(-c2noc3ccccc23)c(O)cc1O` [Example 5] stands 10 to 100 µM; under `Oc1cc(O)c(-c2noc3ccccc23)cc1CNc1ccccc1` [Example 8, 4-(1,2-Benzisoxazol-3-yl)-6-(phenylamino)methylbenzene-1,3-diol], 1 to 10 µM.
